Reference: patent US11007176B2, “Use of actin depolymerizing agents for the treatment of anxiety disorders” (priority 2019, dated 2021)
“Also recorded” adds a separate entry of the source.

Tested on: Atf3^−/− mice
Test: Trace fear conditioning (contextual and tone freezing tests) after intracranial infusion of cytochalasin D
Format: in vivo
Protocol: The habituation session was performed similarly to the DFC. The mice were divided into three groups (WT: n=15; Atf3^+/−: n=10; Atf3^−/−: n=16) and placed in the conditioning chamber for 15 min per day for 3 days. On Day 4, they underwent three trace fear conditioning trials: a 20-s tone (6000 Hz, 85 dB; CS), followed by a 10-s time interval, and then a 1-s foot shock (2 mA; US). Twenty-four hours later, the mice were placed in the same conditioning chamber for 6 min with neither tone nor foot shock for contextual testing. One hour after the contextual test, the mice were placed in a novel chamber for a tone test, which was performed as follows: 1 min with neither tone nor foot shock followed by a 6-min tone (6000 Hz, 85 dB). Freezing behaviors were recorded and analyzed using the FreezeScan software, and the freezing percentage was calculated using the aforementioned formula.
At 14 weeks of age, mice (Atf3^+/−: n=5, Atf3^−/−: n=9) were anesthetized using a mixture of ketamine, xylazine, and saline (0.55 mL/25 g) in accordance with the regulations of the Lab Animal Center, Tzu Chi University, Taiwan. Mouse heads were restrained in stereotaxic apparatus to ensure movement restriction during surgery. […] After surgery, the mice were placed in their respective cages to recover for 4 days and were then tested for TFC. Habituation was performed as described in the trace fear conditioning protocol. Using a Hamilton syringe, the actin depolymerizing agent cytochalasin D (Sigma-Aldrich, MO, USA, catalogue No. C8273), dissolved in dimethyl sulfoxide at a concentration of 25 μg/μL, was infused at a rate of 0.5 μL/min for 1 min immediately after fear conditioning on Day 4. Twenty-four hours later, contextual and tone testing was performed as previously described. A few mice were unable to perform the tasks because of loss of mobility after surgery; the data for these mice are not included. Mice were transcardially perfused, and their brains were incubated in Golgi-Cox staining solution.

In the case of C=C1[C@@H](C)[C@H]2[C@H](Cc3ccccc3)NC(=O)[C@]23[C@H](OC(C)=O)/C=C/[C@@](C)(O)C(=O)[C@@H](C)C/C=C/[C@H]3[C@@H]1O [cytochalasin D], the “Freezing percentage to context” value (Atf3^−/− mice, cytochalasin D 25 μg/μL in DMSO infused at 0.5 μL/min for 1 min immediately after trace fear conditioning, contextual test 24 h later, compared with Atf3^−/− mice treated with saline (FIG. 5G)) was “significantly lower”, the “Freezing percentage to tone” value (Atf3^−/− mice, cytochalasin D 25 μg/μL in DMSO infused at 0.5 μL/min for 1 min immediately after trace fear conditioning, tone test 24 h later, compared with Atf3^−/− mice treated with saline (FIG. 5H)) was “significantly lower” and the “Freezing behavior (fear phenotype) of Atf3^−/− mice” value (hippocampal / intracranial infusion of cytochalasin D, summary statement, context or tone test not specified) was “reversed the phenotype of Atf3^−/− mice; also recorded: reduced the freezing behavior of the Atf3^−/− mice to a wild-type mouse level”.
